We go through one molecule from patent EP0278997A1, “Azapropazone rectal capsules” (SIEGFRIED AKTIENGESELLSCHAFT, priority 1987, dated 1988).

“And” between values parts separate entries of the source, which are not always exact repeats. Identical values can stand only once. Like-named read-outs stand apart in the source and are kept apart here.

The data set can be described thus: Bioavailability of the rectal capsule versus i.v. administration (plasma AUC 0-72) in test subjects. The data set is classed as in vivo. The note with it: for AUC at 72 h: human, plasma, iv, read-out: A U C 0 - 72.

In the case of `CCCC1C(=O)N2C(N(C)C)=Nc3ccc(C)cc3N2C1=O` (stereo not drawn) [Azapropazon, 3-Dimethyl-amino-7-methyl-1,2-(n-propyimaionyi)-1,2-dihydro-1,2.4-benzotriazin], the AUC at 72 h was 1060 µg·h/mL (geometric mean (geom.x) of 6 Probanden) and 1080 µg·h/mL (mean (x) of 6 Probanden). Besides, the “A U C 0 - 72” value (individual Proband, 4320 min) was 926.46 mcg/ml.Std and 728.31 mcg/ml.Std and 1158.02 mcg/ml.Std and 964.71 mcg/ml.Std and 1466.56 mcg/ml.Std and 1252.36 mcg/ml.Std.
